Laboratory results taken from ChEMBL document CHEMBL1201862, “PubChem BioAssay data set” (2004).
Active and inactive are the calls of the source.

What was measured:
MDA-MB-435 = assay: cells; type: functional, cell-based; conditions: Homo sapiens
cells = type: functional, cell-based; conditions: PPC-1
[1] = target: NACHT, LRR and PYD domains-containing protein 3 (Homo sapiens, UniProt Q96P20); assay: NALP3 inhibitors in yeast, dose response, luminescent (AID 488799); type: functional
[2] = protection from phage-mediated lysis, alamar blue read-out – E. coli UTI89, K1F phage, bacterial capsule biogenesis inhibitors (AID 488966); type: functional
[3] = target: DNA damage-inducible transcript 3 protein (Mus musculus, UniProt P35639); type: functional, Cricetulus griseus
X-box-binding protein 1 = X-box-binding protein 1 (Homo sapiens, UniProt P17861); type: functional, Cricetulus griseus;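 further: confirmatory dose-response counter-screen serving a CHOP assay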
[4] = target: Envelope glycoprotein gp160 (Human immunodeficiency virus 1, UniProt Q6QLK5); assay: cell-free HIV fusion peptide-binding blockers – biochemical, uHTS, fluorescence dequenching, […] (AID 1986)
SUMO-activating enzyme [5] = target: T1, SUMO-activating enzyme (Homo sapiens, UniProt Q9UBT2); assay: blockers of UBC9-mediated SUMO conjugation – biochemical, AlphaScreen, SUMOylation inhibitor project, confirmation (AID 2018); type: functional
SUMO-activating enzyme [6] = target: T1, SUMO-activating enzyme; assay: blockers of SAE1/SAE2–UBC9 SUMO transfer – biochemical, HTRF, uHTS, primary screen (AID 2006); type: protein-complex assay
[7] = target: T2, Replicative DNA helicase DnaB (Mycobacterium tuberculosis, UniProt P9WMR3); assay: DnaB intein splicing inhibitors, dose response, biochemical, cell-free fluorescence (AID 449749); type: functional
T2 sequence (P9WMR3 whole entry): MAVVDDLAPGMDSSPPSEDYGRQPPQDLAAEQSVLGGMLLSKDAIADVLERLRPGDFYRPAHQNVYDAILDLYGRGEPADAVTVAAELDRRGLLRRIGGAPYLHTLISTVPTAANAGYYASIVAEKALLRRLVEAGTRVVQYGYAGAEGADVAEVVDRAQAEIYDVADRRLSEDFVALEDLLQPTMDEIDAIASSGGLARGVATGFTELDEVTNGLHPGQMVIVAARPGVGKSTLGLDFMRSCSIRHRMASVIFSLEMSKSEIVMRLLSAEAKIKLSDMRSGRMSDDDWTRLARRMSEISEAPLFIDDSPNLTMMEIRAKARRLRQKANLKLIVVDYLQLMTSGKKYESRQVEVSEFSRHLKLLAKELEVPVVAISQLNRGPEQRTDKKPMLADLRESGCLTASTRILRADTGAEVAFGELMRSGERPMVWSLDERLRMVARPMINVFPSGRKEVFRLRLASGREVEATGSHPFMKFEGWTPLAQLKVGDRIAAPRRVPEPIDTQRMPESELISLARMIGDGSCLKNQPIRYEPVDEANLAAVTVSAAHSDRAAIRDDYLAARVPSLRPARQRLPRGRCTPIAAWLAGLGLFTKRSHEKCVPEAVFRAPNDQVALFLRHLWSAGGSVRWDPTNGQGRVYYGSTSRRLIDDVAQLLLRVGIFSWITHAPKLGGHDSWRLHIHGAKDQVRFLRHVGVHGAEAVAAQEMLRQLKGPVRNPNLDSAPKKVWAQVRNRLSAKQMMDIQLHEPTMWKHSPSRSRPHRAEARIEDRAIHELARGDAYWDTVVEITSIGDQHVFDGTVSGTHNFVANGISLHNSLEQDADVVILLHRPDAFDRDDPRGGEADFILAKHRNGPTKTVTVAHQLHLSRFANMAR

[8] = target: T3, High affinity choline transporter 1 (Homo sapiens, UniProt Q9GZV3); assay: human choline transporter blockers, potency – cell-based, 5-point CRC, membrane potential dye, dose response (AID 504840); type: functional
T3 sequence (Q9GZV3 whole entry): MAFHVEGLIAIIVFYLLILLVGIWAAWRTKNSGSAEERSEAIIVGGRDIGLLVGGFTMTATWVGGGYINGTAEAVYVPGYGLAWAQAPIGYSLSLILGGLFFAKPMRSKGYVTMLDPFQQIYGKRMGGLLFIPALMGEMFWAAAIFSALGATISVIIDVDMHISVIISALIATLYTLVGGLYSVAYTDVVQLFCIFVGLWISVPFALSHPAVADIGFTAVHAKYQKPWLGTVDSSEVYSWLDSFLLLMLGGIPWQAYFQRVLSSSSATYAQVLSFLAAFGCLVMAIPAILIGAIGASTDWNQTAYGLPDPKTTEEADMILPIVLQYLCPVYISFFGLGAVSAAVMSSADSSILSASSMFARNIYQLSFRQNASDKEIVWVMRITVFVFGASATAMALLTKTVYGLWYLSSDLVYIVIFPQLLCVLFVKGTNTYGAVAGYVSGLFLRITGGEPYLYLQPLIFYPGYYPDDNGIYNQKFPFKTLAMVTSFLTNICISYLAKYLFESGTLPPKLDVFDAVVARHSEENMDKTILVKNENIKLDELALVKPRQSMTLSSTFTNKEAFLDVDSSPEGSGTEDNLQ

Protein RecA = target: T4, Protein RecA (Mycobacterium tuberculosis, UniProt P9WHJ3); assay: Fluorescence Cell-Free Homogeneous Dose Retest to Identify Inhibitors of RecA-Intein Splicing Activity. [Related pubchem assays (depositor defined):AID2097, AID2223, AID489010, AID492950]; type: functional
T4 sequence (P9WHJ3 whole entry): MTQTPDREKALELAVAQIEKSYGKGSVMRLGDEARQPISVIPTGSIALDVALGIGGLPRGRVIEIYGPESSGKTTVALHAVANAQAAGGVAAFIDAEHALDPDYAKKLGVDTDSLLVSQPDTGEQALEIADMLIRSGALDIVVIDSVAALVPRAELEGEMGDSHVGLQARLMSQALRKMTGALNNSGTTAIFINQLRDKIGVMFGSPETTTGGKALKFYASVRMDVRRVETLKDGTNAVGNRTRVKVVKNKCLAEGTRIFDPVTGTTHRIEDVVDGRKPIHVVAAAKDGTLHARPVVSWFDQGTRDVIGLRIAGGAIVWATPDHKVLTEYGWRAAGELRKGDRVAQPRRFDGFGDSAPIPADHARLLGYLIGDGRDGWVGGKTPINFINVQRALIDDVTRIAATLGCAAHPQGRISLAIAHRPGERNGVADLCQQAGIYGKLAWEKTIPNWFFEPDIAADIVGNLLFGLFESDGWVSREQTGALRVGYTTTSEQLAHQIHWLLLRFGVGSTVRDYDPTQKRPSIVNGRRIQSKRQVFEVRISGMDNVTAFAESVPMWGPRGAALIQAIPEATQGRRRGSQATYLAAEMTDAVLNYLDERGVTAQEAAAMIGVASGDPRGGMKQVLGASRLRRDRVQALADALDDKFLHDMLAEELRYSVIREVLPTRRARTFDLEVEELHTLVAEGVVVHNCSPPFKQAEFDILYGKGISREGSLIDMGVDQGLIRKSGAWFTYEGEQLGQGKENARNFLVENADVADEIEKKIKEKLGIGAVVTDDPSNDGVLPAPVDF

Genome polyprotein = Genome polyprotein (dengue virus type 2, UniProt P29990); assay: flavivirus cap methylation enzyme inhibition – biochemical, confirmation dose response, primary screen (AID 588689); type: functional
Cytochrome P450 3A4 = Cytochrome P450 3A4 (Homo sapiens, UniProt P08684); conditions: Potency;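 further: confirmatory qHTS run detecting inhibitors and substrates of CYP3A4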
[9] = Cytotoxicity screening for potential Inhibitors of Bacterial Capsule Biogenesis. [Related pubchem assays (depositor defined):AID488970]; type: functional
Neutrophil collagenase = Neutrophil collagenase (Homo sapiens, UniProt P22894); assay: potency against MMP13, MMP2, MMP3, MMP14 – biochemical, probe development, late stage results, selectivity assay for MMP13 inhibitor project, late-stage follow-up, panel member MMP-8 [IC50 Assay] (AID 2067)
[10] = target: Voltage-dependent T-type calcium channel subunit alpha-1H (Homo sapiens, UniProt O95180); assay: human CACNA1H calcium influx blockade – cell-based, synthetic library set 1, calcium flux (AID 493022); type: functional
[11] = microbe, parasite or virus in culture; type: functional; conditions: Mycobacterium tuberculosis
[12] = target: Neurotensin receptor type 1 (Homo sapiens, UniProt P30989); type: functional;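 further: Image-based confirmatory dose-response assay measuring agonist activity at NTR1; NTR1-expressing U2OS osteosarcoma cells imaged for beta-arrestin GFP spot formation; agonist potency where compounds increase beta-arrestin recruitment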
INS1 = assay: INS-1E survival protection against cytokine death – cell-based, luminescence, retest, dose response (AID 449756); type: functional; conditions: Rattus norvegicus, INS1;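 further: cell death triggered by IL-1 beta plus TNF-alpha plus IFN-gamma mixture; protective hits raise ATP signal compared with cytokine alone wells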
[13] = target: Luciferin 4-monooxygenase (Photinus pyralis, UniProt P08659); assay: inhibition of purified Photinus pyralis luciferase – biochemical, luminescence, dose response (AID 1891)
[14] = Luminescence Cell-Based Dose Confirmation HTS to Identify Inhibitors of Platelet Dense Granule Release. [Related pubchem assays: 1663 (Primary HTS), 1678 (Summary of Project)]; type: functional
[15] = target: Metabotropic glutamate receptor 4 (Homo sapiens, UniProt Q14833); assay: Modulation of the Metabotropic Glutamate Receptor mGluR4: Potency at human mGluR4. Modulation of intracellular Ca2+ using Fluo-4, AM, in CHO expressing recombinant receptor [Related pubchem assays (depositor defined):AID2437, AID2807]; type: functional, cell-based
[16] = blockers of SFLLRN-triggered platelet ATP secretion – cell-based, human platelets, luminescence, dry powder, dose response (AID 493100); type: functional
[17] = NIH-3T3 fibroblast cytotoxicity, dose response, cytotoxicity control, cell-based, fluorescence, Alamar Blue, secondary assay (AID 2327); type: functional;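 further: NIH-3T3 mouse fibroblasts cultured with fluconazole at 8 µg/mL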
HEK293 [18] = assay: inhibition of NOD1-driven NF-kB reporter – cell-based, luminescence, uHTS, primary screen (AID 1578); type: functional; conditions: Homo sapiens
HEK293 [19] = assay: cells; type: functional, cell-based; conditions: Homo sapiens
[20] = fluconazole-exposed Candida albicans growth modulators – fluorescence, retest, confirmation (AID 2467); type: functional, cell-based
HEK293 [21] = assay: cells; type: functional, cell-based; conditions: Homo sapiens; remark: listed apart in the source
[22] = target: Nucleotide-binding oligomerization domain-containing protein 2 (Homo sapiens, UniProt Q9HC29); assay: inhibition of NOD2-driven NF-kB reporter – cell-based, luminescence, uHTS, HEK293 (AID 1566); type: functional
HEK293 [23] = assay: NOD2 signaling inhibitors in MDP-stimulated cells, cell-based, uHTS, luminescence (AID 2001); type: functional; conditions: Homo sapiens
HEK293 [24] = assay: cells; type: functional, cell-based; conditions: Homo sapiens; remark: listed apart in the source
[25] = HEK-293T cell viability reduction – luminescence, B-cell screen hits, cytotoxicity control for BCR NF-kB inhibitor project, dose response (AID 489021); type: functional, cell-based;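 further: HEK-293T cells carrying an NF-kB luciferase reporter; cells exposed to compound for about 14 hours before viability readout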

T1 sequence (Q9UBE0 whole entry): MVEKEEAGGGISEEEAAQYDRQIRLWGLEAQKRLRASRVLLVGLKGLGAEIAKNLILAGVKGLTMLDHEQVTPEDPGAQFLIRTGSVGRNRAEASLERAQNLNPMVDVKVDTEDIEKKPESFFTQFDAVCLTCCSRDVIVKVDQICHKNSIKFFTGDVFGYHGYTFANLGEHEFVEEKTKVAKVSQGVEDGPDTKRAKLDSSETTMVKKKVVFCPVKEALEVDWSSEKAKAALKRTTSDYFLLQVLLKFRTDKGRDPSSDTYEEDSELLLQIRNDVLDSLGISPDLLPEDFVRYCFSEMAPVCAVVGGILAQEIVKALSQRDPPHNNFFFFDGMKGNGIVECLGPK
T1 sequence (Q9UBT2 whole entry): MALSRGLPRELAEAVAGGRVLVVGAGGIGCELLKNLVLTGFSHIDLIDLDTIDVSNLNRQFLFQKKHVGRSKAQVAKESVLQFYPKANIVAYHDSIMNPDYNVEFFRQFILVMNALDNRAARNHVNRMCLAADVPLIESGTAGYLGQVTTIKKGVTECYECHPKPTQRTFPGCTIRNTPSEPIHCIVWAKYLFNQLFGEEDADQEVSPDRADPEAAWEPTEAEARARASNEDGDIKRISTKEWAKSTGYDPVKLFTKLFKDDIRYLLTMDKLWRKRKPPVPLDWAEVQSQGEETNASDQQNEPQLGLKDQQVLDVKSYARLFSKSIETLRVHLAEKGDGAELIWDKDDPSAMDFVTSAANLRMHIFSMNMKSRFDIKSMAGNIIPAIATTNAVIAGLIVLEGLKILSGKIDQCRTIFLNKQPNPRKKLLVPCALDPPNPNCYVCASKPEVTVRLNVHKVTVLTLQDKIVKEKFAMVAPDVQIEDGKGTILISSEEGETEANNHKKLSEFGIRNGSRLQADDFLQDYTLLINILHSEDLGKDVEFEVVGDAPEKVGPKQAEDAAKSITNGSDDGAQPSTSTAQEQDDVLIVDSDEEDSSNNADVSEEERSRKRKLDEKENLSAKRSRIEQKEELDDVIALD
Sequence of Neurotensin receptor type 1 (P30989 whole entry): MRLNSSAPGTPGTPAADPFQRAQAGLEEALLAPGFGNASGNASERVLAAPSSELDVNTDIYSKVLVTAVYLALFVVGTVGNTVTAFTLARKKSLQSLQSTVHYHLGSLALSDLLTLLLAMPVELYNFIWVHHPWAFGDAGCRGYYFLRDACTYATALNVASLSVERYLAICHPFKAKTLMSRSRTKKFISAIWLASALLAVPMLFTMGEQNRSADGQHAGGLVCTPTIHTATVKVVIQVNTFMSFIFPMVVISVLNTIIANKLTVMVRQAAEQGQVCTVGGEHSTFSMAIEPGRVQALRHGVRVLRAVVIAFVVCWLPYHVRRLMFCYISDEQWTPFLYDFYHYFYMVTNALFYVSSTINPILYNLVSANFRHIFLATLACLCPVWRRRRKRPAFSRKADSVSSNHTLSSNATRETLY
Sequence of Nucleotide-binding oligomerization domain-containing protein 2 (Q9HC29 whole entry, the tested form may be a part): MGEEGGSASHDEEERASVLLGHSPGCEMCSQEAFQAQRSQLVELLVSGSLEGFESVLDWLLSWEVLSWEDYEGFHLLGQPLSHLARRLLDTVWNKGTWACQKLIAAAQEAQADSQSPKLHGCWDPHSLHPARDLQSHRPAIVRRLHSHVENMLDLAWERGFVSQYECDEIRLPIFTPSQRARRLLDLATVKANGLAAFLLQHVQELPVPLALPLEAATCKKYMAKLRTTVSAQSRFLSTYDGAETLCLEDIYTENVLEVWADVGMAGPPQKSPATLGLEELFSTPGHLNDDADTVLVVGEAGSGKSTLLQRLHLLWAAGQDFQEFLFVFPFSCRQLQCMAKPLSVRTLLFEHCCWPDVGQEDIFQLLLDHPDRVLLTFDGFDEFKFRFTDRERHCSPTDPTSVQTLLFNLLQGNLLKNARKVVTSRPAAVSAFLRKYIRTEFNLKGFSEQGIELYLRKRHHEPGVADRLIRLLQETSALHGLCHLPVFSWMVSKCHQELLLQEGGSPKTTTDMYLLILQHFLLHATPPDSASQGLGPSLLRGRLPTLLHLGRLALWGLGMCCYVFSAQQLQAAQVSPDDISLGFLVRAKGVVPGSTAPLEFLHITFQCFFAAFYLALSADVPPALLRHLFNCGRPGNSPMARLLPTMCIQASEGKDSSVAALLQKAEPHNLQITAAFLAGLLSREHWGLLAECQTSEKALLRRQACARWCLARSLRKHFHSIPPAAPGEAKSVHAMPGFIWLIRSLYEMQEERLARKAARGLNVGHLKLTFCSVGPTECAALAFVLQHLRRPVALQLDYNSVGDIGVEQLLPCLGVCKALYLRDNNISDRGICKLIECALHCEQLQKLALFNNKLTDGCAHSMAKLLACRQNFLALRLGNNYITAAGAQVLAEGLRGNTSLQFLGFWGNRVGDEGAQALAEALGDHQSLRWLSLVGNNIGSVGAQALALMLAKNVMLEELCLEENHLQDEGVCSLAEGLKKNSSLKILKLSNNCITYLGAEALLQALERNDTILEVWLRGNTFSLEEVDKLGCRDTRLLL
Sequence of NACHT, LRR and PYD domains-containing protein 3 (Q96P20 whole entry, the tested form may be a part): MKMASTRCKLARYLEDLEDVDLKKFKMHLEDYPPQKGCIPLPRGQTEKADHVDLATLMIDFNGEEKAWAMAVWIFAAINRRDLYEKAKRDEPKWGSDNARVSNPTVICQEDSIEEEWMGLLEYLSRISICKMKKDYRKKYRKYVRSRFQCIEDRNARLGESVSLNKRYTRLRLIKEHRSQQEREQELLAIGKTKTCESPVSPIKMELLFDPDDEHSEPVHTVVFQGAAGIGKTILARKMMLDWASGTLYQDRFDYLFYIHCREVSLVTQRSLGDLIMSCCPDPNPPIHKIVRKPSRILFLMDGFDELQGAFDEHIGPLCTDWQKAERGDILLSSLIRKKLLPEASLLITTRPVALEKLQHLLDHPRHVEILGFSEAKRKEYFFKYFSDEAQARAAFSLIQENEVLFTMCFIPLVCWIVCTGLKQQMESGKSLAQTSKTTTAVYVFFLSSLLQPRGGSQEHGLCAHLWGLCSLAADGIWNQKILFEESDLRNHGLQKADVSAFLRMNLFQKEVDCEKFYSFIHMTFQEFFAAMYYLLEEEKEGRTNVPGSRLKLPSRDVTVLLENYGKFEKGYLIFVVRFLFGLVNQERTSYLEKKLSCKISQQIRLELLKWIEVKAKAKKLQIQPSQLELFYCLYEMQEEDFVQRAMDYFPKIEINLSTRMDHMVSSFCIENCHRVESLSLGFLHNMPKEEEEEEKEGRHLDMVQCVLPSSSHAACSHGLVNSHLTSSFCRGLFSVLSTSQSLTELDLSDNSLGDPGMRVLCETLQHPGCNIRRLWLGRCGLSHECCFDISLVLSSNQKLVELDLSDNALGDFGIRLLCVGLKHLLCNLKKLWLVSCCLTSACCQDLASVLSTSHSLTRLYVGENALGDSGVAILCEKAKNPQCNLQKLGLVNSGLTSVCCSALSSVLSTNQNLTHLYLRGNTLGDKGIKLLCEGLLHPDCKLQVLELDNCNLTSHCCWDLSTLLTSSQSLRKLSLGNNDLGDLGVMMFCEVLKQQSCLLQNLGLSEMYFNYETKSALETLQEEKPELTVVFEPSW
Sequence of Envelope glycoprotein gp160 (Q6QLK5 whole entry, the tested form may be a part): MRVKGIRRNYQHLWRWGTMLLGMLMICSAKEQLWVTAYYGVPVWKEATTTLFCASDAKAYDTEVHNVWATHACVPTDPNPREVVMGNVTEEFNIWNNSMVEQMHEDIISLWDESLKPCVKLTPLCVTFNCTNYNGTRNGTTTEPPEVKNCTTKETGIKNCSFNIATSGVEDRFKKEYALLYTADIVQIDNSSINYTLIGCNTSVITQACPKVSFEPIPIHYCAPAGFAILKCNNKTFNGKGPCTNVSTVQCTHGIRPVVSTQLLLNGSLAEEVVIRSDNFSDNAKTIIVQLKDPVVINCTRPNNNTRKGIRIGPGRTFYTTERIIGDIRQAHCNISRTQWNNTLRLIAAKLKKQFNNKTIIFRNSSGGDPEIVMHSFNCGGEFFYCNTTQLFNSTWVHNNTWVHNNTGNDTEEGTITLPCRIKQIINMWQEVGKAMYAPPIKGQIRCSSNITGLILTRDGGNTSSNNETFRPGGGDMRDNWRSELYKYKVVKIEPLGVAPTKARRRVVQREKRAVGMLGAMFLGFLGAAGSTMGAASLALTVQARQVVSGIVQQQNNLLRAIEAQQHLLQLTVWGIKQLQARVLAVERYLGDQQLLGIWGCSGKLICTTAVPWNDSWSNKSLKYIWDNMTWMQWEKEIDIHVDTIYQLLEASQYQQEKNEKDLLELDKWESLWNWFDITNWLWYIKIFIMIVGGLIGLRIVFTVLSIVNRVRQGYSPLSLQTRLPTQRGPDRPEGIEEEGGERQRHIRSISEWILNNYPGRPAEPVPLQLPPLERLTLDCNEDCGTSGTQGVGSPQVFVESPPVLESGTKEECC
Sequence of Luciferin 4-monooxygenase (P08659 whole entry): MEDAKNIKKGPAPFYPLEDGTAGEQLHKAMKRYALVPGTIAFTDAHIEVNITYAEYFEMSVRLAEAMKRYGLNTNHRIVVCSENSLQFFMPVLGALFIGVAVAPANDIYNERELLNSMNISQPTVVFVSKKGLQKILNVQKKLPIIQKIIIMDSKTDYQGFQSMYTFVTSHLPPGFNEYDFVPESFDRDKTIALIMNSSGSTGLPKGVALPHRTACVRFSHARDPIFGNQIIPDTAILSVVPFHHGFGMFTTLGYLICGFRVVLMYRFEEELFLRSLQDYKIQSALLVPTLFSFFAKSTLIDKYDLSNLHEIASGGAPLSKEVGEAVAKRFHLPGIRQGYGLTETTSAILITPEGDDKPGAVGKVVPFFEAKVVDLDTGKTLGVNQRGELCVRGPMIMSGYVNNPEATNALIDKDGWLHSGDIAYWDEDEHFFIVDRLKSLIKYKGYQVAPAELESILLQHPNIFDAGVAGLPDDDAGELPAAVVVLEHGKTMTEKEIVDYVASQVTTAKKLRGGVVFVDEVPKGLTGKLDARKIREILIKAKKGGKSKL
Sequence of DNA damage-inducible transcript 3 protein (P35639 whole entry): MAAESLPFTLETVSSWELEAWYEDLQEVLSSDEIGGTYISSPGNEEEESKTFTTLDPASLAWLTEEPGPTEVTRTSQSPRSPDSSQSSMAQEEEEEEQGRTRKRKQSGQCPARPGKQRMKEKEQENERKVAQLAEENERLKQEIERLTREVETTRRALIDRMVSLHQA

CSc1nc(-c2ccccc2)nc(C(C)C)n1
IC50 (MDA-MB-435): > 10 µM (inactive) | IC50 (cells): > 10 µM (inactive)

Cc1onc(-c2ccccc2Cl)c1C(=O)N1C=CC(C(F)(F)F)=NCC1
IC50 [1]: 8.66 µM (active)

O=C(Nc1ccc(N2CCOCC2)cc1)c1ccc2ncsc2c1
IC50 [2]: > 150 µM (active)

O=C(Nc1cccc(C(F)(F)F)c1)NC1CCN(S(=O)(=O)c2ccc(F)cc2)CC1
Absolute IC50 (CHOP) [3]: 10 µM | Absolute IC50 (XBP1) (X-box-binding protein 1): 10 µM

CCCCCc1c2c(cc(O)c1C(=O)O)OC(=O)c1c(cc(OC)cc1C(=O)CCCC)O2 [LOBARIC ACID]
IC50 [4]: 13.1 µM (active) | IC50 (SUMO-activating enzyme [5]): 6.52 µM (active) | IC50 (SUMO-activating enzyme [6]): 15.3 µM (active) | AC50 [7]: 6.47 µM (active) | IC50 [8]: 11 µM (active) | EC50 (Protein RecA): 4.98 µM (active) | IC50 (Genome polyprotein): 32.2 µM (active) | AC50 (Cytochrome P450 3A4): 25.1 µM (inconclusive)

Cc1ccc(C2c3c(oc4cc(C)c(C)cc4c3=O)C(=O)N2CCCN2CCOCC2)cc1 (stereo not given)
CC50 [9]: 44.4 µM (active)

Cc1ccc(CSc2nc3c(c(=O)[nH]2)CCC3)cc1
IC50 (Neutrophil collagenase): > 39.8 µM (inactive)

O=C(COc1ccc(F)cc1)Nc1nnc(-c2ccc3c(c2)OCO3)o1
EC50 [10]: 10 µM (active)

COc1ccc(C(CCN2CCCCC2)c2c(OC)cc(OC)c3c(-c4ccccc4)cc(=O)oc23)cc1 (stereo not given)
CC50 [11]: 20.5 µM (active) | EC50 [12]: 14.7 µM (active) | IC50 [8]: 12.6 µM (active) | AC50 (INS1): 10.7 µM (active)

COc1ccc(NC(=O)c2ccccn2)cc1OC
EC50 [13]: > 112 µM (not active) | EC50 [14]: 42.7 µM (active) | EC50 [15]: 3.65 µM (active)

CCCC(=O)Nc1cccc(NC(=O)c2ccccc2F)c1
AC50 [16]: 31.5 µM (active)

COc1ccc(-c2n(Cc3ccccc3)c3ccccc3[n+]2Cc2ccccc2)cc1
EC50 [17]: > 150 µM (inactive) | EC50 (HEK293 [18]): 4.23 µM (active) | IC50 (HEK293 [19]): 1.21 µM (active) | EC50 [20]: > 38 µM (not active) | IC50 (HEK293 [21]): 11.7 µM (active) | EC50 [22]: 9.35 µM (active) | IC50 (HEK293 [23]): 3.69 µM (active) | IC50 (HEK293 [24]): > 20 µM (inactive) | IC50 [25]: > 80 µM (inactive) | AC50 (INS1): 3.85 µM (active)
